Assay results: US20130034497A1, “IODINE-LABELED HOMOGLUTAMIC ACID AND GLUTAMIC ACID DERIVATIVES” (PIRAMAL IMAGING SA, priority 2009, published 2013)
Each block holds one compound with its values, some of them ahead of it.

How the values were obtained:
[1] = test system: NCl-H460 cells; assay: cell competition experiment with I125-labeled derivative as tracer; type: cell-based, human
Procedure: To determine the specificity of (2S,4S)-2-Amino-4-(4-hydroxy-3-[1-125]-iodobenzyl)-pentanedioic acid, the compound was used as tracer in a cell competition experiment in H460 tumor cells against an excess of L-Glutamic acid (1 mM).
FIG. 3: Examination of biological activity of (2S,4S)-2-Amino-4-(3-[4-[I-125]-iodophenoxy]propylypentanedioic acid in a cell competition experiment. (NCl-H460 cells, 30 min incubation with I125-labeled derivative in PBS-buffer, concentration of “cold” derivative 1 mM).
FIG. 5: Determination of biological activity of (2S,4S)-2-Amino-4-(4-hydroxy-3-[I-125]-iodobenzyl)-pentanedioic acid in a cell competition experiment. (NCl-H460 cells, 10 min incubation with [I125]-labeled derivative in PBS-buffer, concentration of L-Glutamate 1 mM).

[2] = test system: NCl-H460 cells; assay: tumor cell uptake/binding experiment with I125-labeled derivative; type: cell-based, human
Procedure: FIG. 6 The time dependence of uptake of (2S,4S)-2-Amino-4-(4-[I-125]-iodo-benzyl)-pentanedioic acid was determined. H460 cells were incubated with 0.25 MBq (2S,4S)-2-Amino-4-(4-[I-125]-iodo-benzyl)-pentanedioic acid for up to 60 min and the cell-bound fraction was determined after 10, 20, 30 and 60 min).
In a next experiment, NCl-H460 cells were incubated with [I125]-labeled (2S,4S)-2-Amino-4-(3-[4-[I-125]-iodophenoxy]propylypentanedioic acid for up to 30 min and the cell-bound fraction was determined. Approximately 12% of applied activity was bound to the cells after 30 min incubation (FIG. 2).
FIG. 2: E xamination of biological activity of (2S,4S)-2-Amino-4-(3-[4-[I-125]-iodophenoxy]propylypentanedioic acid in a tumor cell uptake/binding experiment. (NCl-H460 cells, up to 30 min incubation with I125-labeled derivative).
Cell uptake & Retention of (2S,4S)-2-Amino-4-(4-[1-125]-iodo-benzyl)-pentanedioic acid—For determination of the biological activity of (2S,4S)-2-Amino-4-(4-[I-125]-iodo-benzyl)-pentanedioic acid, the I-125 labeled compound was used as tracer in a cell uptake experiment using H460 (human NSCLC) cells. Approximately 100.000 cells were incubated with 0.25 MBq (2S,4S)-2-Amino-4-(4-[I-125]-iodo-benzyl)-pentanedioic acid for up to 60 minutes in PBS-buffer containing 0.1% BSA and the cell-bound fraction was determined. […] Approximately 22,3% of applied dose was taken up by the cells during the 60 min incubation period (see FIG. 6).

[3] = test system: NCl-H460 (human NSCLC) tumor cells; assay: cell competition experiment with 3H-glutamic acid as tracer, NCl-H460 cells; type: cell-based
Procedure: FIG. 9 Examination of biological activity of (S)-2-Amino-5-(4-iodobenzyl)-hexanedioic acid in a cell-competition-experiment (H460 cells, 30 min incubation with 3H-glutamic acid in PBS-Puffer, concentration of competitor 1 mM and 0.1 mM).
The specificity of binding to NCl-H460 (human NSCLC) tumor cells was examined using 3H-Glutamic acid as tracer and (2S,4S)-2-Amino-4-(3-[4-iodophenoxy]propyl)-pentanedioic acid in concentrations ranging from 4 μM to 1 mM.
(§1) The specificity of binding was examined in a cell competition experiment using 3H-glutamic acid as tracer and (2S,4S)-2-Amino-4-(4-iodo-benzyl)-pentanedioic acid in excess (1 mM) to compete for transporter.
FIG. 1: Concentration dependent blocking of 3H-Glutamic acid uptake in H460 cells using different concentrations of (2S,4S)-2-Amino-4-(3-[4-iodophenoxy]propyl)-pentanedioic acid.
(§2) FIG. 4: Examination of biological activity of (2S,4S)-2-Amino-4-(4-iodo-benzyl)-pentanedioic acid in a cell competition experiment. (NCl-H460 cells, A549 cells, 10 min incubation with 1 μCi 3H-Glutamic acid in PBS-buffer, concentration of test compound 1 mM).
The ability of (S)-2-Amino-5-(4-iodobenzyl)-hexanedioic acid to compete with uptake of glutamic acid into tumor cells was examined. Therefore, tumor cells were co-incubated with 3H-labeled glutamic acid and (S)-2-Amino-5-(4-iodobenzyl)-hexanedioic acid. This compounds was used in large excess to the tracer 3H-glutamic acid. Two concentrations were examined (1mM an 0.1 mM).

[4] = test system: NCl-H460 (human NSCLC) tumor bearing nude-mice; assay: SPECT imaging in tumor bearing nude-mice; type: in vivo, nude-mice (NMRI nu/nu); settings: approx. 10 MBq; images acquired at 60 min p.i. for 35 min
Procedure: FIG. 8 SPECT imaging with (2S,4S)-2-Amino-4-(4-[I-125]odo-benzyl)-pentanedioic acid after injection into H460 tumor bearing mouse.
SPECT imaging. (2S,4S)-2-Amino-4-(4-[I-125]-iodo-benzyl)-pentanedioic acid was examined in NCl-H460 (human NSCLC) tumor bearing nude-mice (NMRI nu/nu). Approx. 10 MBq of (2S,4S)-2-Amino-4-(4-[I-125]-iodo-benzyl)pentanedioic acid was injected into the mouse. SPECT imaging was performed using a γ-camera (Nucline SPIRIT DH-V). Images were aquired at 60 min p.i. for 35 min with 60 sec/frame.

[5] = test system: H460 tumor cells; assay: retention of activity in tumor cells (efflux); type: cell-based, human; settings: H460 cells loaded 30 min; after 30 min in new PBS-buffer (efflux conditions)
Procedure: FIG. 7 Examination of retention of (2S,4S)-2-Amino-4-(4-[I-125]odo-benzyl)-pentanedioic acid in H460 tumor cells. H460 cells were loaded with 0.25 MBq (2S,4S)-2-Amino-4-(4-[I-125]-iodo-benzyl)-pentanedioic acid for 30 min in PBS/BSA. After washing, the cells were incubated with new buffer (without radioactivity) for additional 10, 20, 30 min. The release of radioactivity into the supernatant as well as the retention inside the cells was determined.
In a second experiment, the retention of activity in tumor cells was examined. H460 cells were loaded with 0.25 MBq (2S,4S)-2-Amino-4-(4-[I-125]-iodo-benzyl)-pentanedioic acid for 30 minutes in PBS/BSA-buffer. After this uptake, the buffer was removed and the cells were washed with PBS. The cells were then incubated with new PBS-buffer (without activity) for up to 30 min. The release of activity into the supernatant as well as the retention of activity inside the cells was examined. It was discovered, that more than 75% of activity were retained in the tumor cells after 30 min under these efflux conditions (see FIG. 7).

[6] = test system: H460 tumor bearing mice; assay: Biodistribution in H460 tumor bearing mice; type: in vivo, NMRI (nu/nu) mice; settings: for Bilanz/summary Recovery / Bilanz/summary urine: in % (unit assumed)
Procedure: Biodistribution in H460 tumor bearing mice. To test the pharmacokinetic properties of (2S,4S)-2-Amino-4-(4-[I-125]-iodo-benzyl)-pentanedioic acid, the iodinated compound was examined in H460 tumor bearing mice. NMRI (nu/nu) mice were inoculated with H460 tumor cells 8 to 10 days before the biodistribution studies. 185 kBq of activity of the tracer was injected into each mouse. n=3 mice were used at every time point. After injection of the I125-labeled compound, mice were sacrificed at the time points indicated. All organs were removed and radioactivity was determined using a γ-counter. […] Very rapid clearance of radioactivity takes place via the kidneys, with more than 90% of activity being excreted after 30 min p.i.

[7] = test system: A549 (human NSCLC cell line); assay: cell competition experiment with 3H-glutamic acid as tracer, A549 cells; type: cell-based; settings: test compound 1 mM, 10 min incubation with 1 μCi 3H-Glutamic acid in PBS-buffer
Procedure: as §1, §2

Compound: N[C@@H](C[C@H](CCCOc1ccc([125I])cc1)C(=O)O)C(=O)O [(2S,4S)-2-Amino-4-(3-[4-[I-125]-iodophenoxy]propyl)-pentanedioic acid]
binding of I125 tracer with cold derivative in excess ([1]; NCl-H460 cells, 30 min incubation in PBS-buffer, cold derivative 1 mM): a large decrease in binding was observed
cell-bound fraction ([2]; NCl-H460 cells, after 30 min incubation): Approximately 12 % of applied activity

Compound: N[C@@H](C[C@H](CCCOc1ccc(I)cc1)C(=O)O)C(=O)O [(2S,4S)-2-Amino-4-(3-[4-iodophenoxy]propyl)-pentanedioic acid]
uptake of 3H-glutamic acid (blocking) ([3]; NCl-H460 cells, test compound 4 μM to 1 mM): able to reduce the uptake of glutamic acid in NCl-H460 cells in a concentration dependent manner

Bilanz/summary carcass ([6]; 0.5 h): 3.4%
Bilanz/summary organs ([6]; 0.5 h): 10.2%
blood ([6]; 0.5 h): 0.28 % Dosis/g
gallbladder ([6]; 0.5 h): 8.09 % Dosis/g
intestine ([6]; 0.5 h): 1.26 % Dosis/g
kidney ([6]; 0.5 h): 2.14 % Dosis/g
liver ([6]; 0.5 h): 0.25 % Dosis/g
pancreas ([6]; 0.5 h): 0.62 % Dosis/g
thyroid ([6]; 0.5 h): 0.43 % Dosis/g
tumor ([6]; 0.5 h): 4.12 % Dosis/g
Bilanz/summary Recovery ([6]; 0.5 h): 112.7
Bilanz/summary urine ([6]; 0.5 h): 99.1
uptake in the tumor ([6]; 30 min p.i., 185 kBq): 4.12 % injected dose per gram of tumor
Bilanz/summary carcass ([6]; 1 h): 2.2%
Bilanz/summary faeces ([6]; 1 h): 0.7%
Bilanz/summary organs ([6]; 1 h): 6.8%
blood ([6]; 1 h): 0.13 % Dosis/g
gallbladder ([6]; 1 h): 5.00 % Dosis/g
intestine ([6]; 1 h): 0.85 % Dosis/g
kidney ([6]; 1 h): 0.83 % Dosis/g
liver ([6]; 1 h): 0.07 % Dosis/g
pancreas ([6]; 1 h): 0.12 % Dosis/g
thyroid ([6]; 1 h): 0.72 % Dosis/g
tumor ([6]; 1 h): 3.68 % Dosis/g
Bilanz/summary Recovery ([6]; 1 h): 109.3
Bilanz/summary urine ([6]; 1 h): 99.6
Bilanz/summary carcass ([6]; 2 h): 1.1%
Bilanz/summary faeces ([6]; 2 h): 2%
Bilanz/summary organs ([6]; 2 h): 3.8%
blood ([6]; 2 h): 0.08 % Dosis/g
gallbladder ([6]; 2 h): 4.73 % Dosis/g
intestine ([6]; 2 h): 0.78 % Dosis/g
kidney ([6]; 2 h): 0.24 % Dosis/g
liver ([6]; 2 h): 0.03 % Dosis/g
pancreas ([6]; 2 h): 0.06 % Dosis/g
thyroid ([6]; 2 h): 0.42 % Dosis/g
tumor ([6]; 2 h): 1.90 % Dosis/g
Bilanz/summary Recovery ([6]; 2 h): 109.7
Bilanz/summary urine ([6]; 2 h): 102.8
Bilanz/summary carcass ([6]; 4 h): 0.5%
Bilanz/summary faeces ([6]; 4 h): 0.1%
Bilanz/summary organs ([6]; 4 h): 2.8%
blood ([6]; 4 h): 0.06 % Dosis/g
gallbladder ([6]; 4 h): 6.63 % Dosis/g
intestine ([6]; 4 h): 1.32 % Dosis/g
kidney ([6]; 4 h): 0.10 % Dosis/g
liver ([6]; 4 h): 0.03 % Dosis/g
pancreas ([6]; 4 h): 0.03 % Dosis/g
thyroid ([6]; 4 h): 1.05 % Dosis/g
tumor ([6]; 4 h): 1.55 % Dosis/g
Bilanz/summary Recovery ([6]; 4 h): 115.3
Bilanz/summary urine ([6]; 4 h): 111.9
activity excreted via the kidneys ([6]; after 30 min p.i.): more than 90 % of activity
Compound: N[C@@H](C[C@H](Cc1ccc([125I])cc1)C(=O)O)C(=O)O [(2S,4S)-2-Amino-4-(4-[I-125]-iodo-benzyl)-pentanedioic acid]
tumor visibility in SPECT-images [4]: The tumor was very well visible
activity retained in the tumor cells [5]: more than 75 % of activity
uptake by the cells ([2]; H460 cells, 0.25 MBq, 60 min incubation, PBS-buffer containing 0.1% BSA): Approximately 22,3 % of applied dose
time dependence of uptake ([2]; H460 cells, 0.25 MBq, up to 60 min, PBS-buffer containing 0.1% BSA): A time-dependent uptake was observed

Compound: N[C@@H](C[C@H](Cc1ccc(O)c([125I])c1)C(=O)O)C(=O)O [(2S,4S)-2-Amino-4-(4-hydroxy-3-[I-125]-iodobenzyl)-pentanedioic acid]
uptake of I125 tracer against excess of L-Glutamic acid ([1]; H460 cells, 10 min incubation in PBS-buffer, L-Glutamate 1 mM): the uptake was blockable by excess of glutamic acid

Compound: N[C@@H](C[C@H](Cc1ccc(I)cc1)C(=O)O)C(=O)O [(2S,4S)-2-Amino-4-(4-iodo-benzyl)-pentanedioic acid]
uptake of 3H-glutamic acid [7]: able to reduce the uptake of glutamic acid
uptake of 3H-glutamic acid ([3]; NCl-H460 cells, test compound 1 mM, 10 min incubation with 1 μCi 3H-Glutamic acid in PBS-buffer): able to reduce the uptake of glutamic acid

Compound: N[C@@H](CCC(Cc1ccc(I)cc1)C(=O)O)C(=O)O (stereo partly drawn) [(S)-2-Amino-5-(4-iodobenzyl)-hexanedioic acid]
uptake of 3H-glutamic acid ([3]; H460 cells, 30 min incubation, competitor 1 mM and 0.1 mM): strongly reduces the uptake of glutamic acid
